{"source": "paper PMC6413339", "about": "(EBioMedicine, 2019)", "test_in_all_cases": "Western blot, MV4–11 cells", "format_in_all_cases": "cell-based, human", "settings_in_all_cases": "2 nM or 10 nM, 6 h and 48 h", "key": {"c-Myc": {"system": "c-Myc", "description": "(§1) MV4–11 cultures were treated with 2 nM and 10 nM of compounds for 6 h and 48 h. Total protein extraction, gel separation, transfer and imaging of blots were performed as previously described. The following primary antibodies from Cell Signaling Technologies (MA, USA) were used: Phospho-p70S6K (cat. no. 9205, RRID: AB_330944), p70S6K (cat. no. 9202, RRID: AB_331676), Phospho-p38 (cat. no. 9211, RRID: AB_331641), p38 (cat. no. 9212, RRID: AB_330713), c-Myc (cat. no. 9402, RRID: AB_2151827), Phospho-FLT3 (cat. no. 3461, RRID: AB_331060), FLT3 (cat. no. 3462, RRID: AB_10693420), Phospho-STAT5 (cat. no. 9359, RRID: AB_823649), STAT5 (cat. no. 9363, RRID: AB_2196923), Phospho-ERK (cat. no. 9101, RRID: AB_331646), ERK (cat. no. 4695, RRID: AB_390779), Phospho-AKT (cat. no. 9271), AKT (cat. no. 9272, RRID: AB_329825), Phospho-Src (cat. no. 2101, RRID: AB_331697), Src (cat. no. 2110, RRID: AB_2106058), Phospho-STAT3 (cat. no. 9145, RRID: AB_2491009), STAT3 (cat. no. 12640, RRID: AB_2629499). Mouse anti-β-Actin antibody was purchased from Sigma (MO, USA). A horseradish peroxidase-conjugated anti-rabbit or anti-mouse antibody (Cell Signaling Technologies) was used as secondary antibody. Scanned images were analyzed using image J software."}, "phospho-Src": {"system": "phospho-Src", "description": "as §1"}, "phospho-Akt": {"system": "phospho-Akt", "description": "as §1"}, "phospho-STAT3": {"system": "phospho-STAT3", "description": "as §1"}, "phospho-ERK": {"system": "phospho-ERK", "description": "as §1"}, "phospho-p38": {"system": "phospho-p38", "description": "as §1"}, "phospho-FLT3": {"system": "phospho-FLT3", "description": "as §1"}, "phospho-p70S6K": {"system": "phospho-p70S6K", "description": "as §1"}, "phospho-STAT5": {"system": "phospho-STAT5", "description": "as §1"}}, "data": [{"smiles": "Cc1ncc(C(=O)Nc2ccc(CN3CCN(C)CC3)c(C(F)(F)F)c2)cc1C#Cc1c(N)ncc2ccc(F)cc12", "note": "[Compound 7]", "values": [{"measurement": "c-Myc level", "setting": "c-Myc", "value": "modest inhibition"}, {"measurement": "phosphorylation of Src", "setting": "phospho-Src", "value": "inhibition"}, {"measurement": "phosphorylation of Akt", "setting": "phospho-Akt", "value": "decreased phosphorylation"}, {"measurement": "STAT3 phosphorylation", "setting": "phospho-STAT3", "value": "inhibited"}, {"measurement": "phosphorylation of ERK", "setting": "phospho-ERK", "value": "inhibition"}, {"measurement": "phosphorylation of p38", "setting": "phospho-p38", "value": "inhibition"}, {"measurement": "phosphorylation of FLT3", "setting": "phospho-FLT3", "value": "inhibition"}, {"measurement": "phosphorylation of p70S6K", "setting": "phospho-p70S6K", "value": "decreased phosphorylation"}, {"measurement": "STAT5 phosphorylation", "setting": "phospho-STAT5", "value": "inhibited"}]}]}
